The text below walks through data of patent US9340590B2 (priority 2011, dated 2016).

Positions of bridges follow the written chain, without caps; N, C: chain ends. Non-standard residues stand in square brackets, D forms with d. Residues, ends and D or L forms follow the SMILES beside them. Pra = C#CC[C@H](N)C(=O)O

Common to all, as to experiment: cell-based
The target in one test is hNav1.7 (Homo sapiens, UniProt Q15858). In kind it is cell-based. The conditions noted are these: IonWorks Quattro, use-dependent block, hNav1.7; read-out: IWQ Use Nav1.7.
In a further test the target is hNav1.3 (Homo sapiens, UniProt Q9NY46). Particulars: IonWorks Quattro, use-dependent block, hNav1.3; read-out: IWQ Use Nav1.3. Background: Patch clamp records ionic current or voltage across a cell membrane.
Another test concerns the target hNav1.5 (Homo sapiens, UniProt Q14524). Particulars: IonWorks Quattro, use-dependent block, hNav1.5; read-out: IWQ Use Nav1.5.

hNav1.5, sequence (Q14524 whole entry, looked up): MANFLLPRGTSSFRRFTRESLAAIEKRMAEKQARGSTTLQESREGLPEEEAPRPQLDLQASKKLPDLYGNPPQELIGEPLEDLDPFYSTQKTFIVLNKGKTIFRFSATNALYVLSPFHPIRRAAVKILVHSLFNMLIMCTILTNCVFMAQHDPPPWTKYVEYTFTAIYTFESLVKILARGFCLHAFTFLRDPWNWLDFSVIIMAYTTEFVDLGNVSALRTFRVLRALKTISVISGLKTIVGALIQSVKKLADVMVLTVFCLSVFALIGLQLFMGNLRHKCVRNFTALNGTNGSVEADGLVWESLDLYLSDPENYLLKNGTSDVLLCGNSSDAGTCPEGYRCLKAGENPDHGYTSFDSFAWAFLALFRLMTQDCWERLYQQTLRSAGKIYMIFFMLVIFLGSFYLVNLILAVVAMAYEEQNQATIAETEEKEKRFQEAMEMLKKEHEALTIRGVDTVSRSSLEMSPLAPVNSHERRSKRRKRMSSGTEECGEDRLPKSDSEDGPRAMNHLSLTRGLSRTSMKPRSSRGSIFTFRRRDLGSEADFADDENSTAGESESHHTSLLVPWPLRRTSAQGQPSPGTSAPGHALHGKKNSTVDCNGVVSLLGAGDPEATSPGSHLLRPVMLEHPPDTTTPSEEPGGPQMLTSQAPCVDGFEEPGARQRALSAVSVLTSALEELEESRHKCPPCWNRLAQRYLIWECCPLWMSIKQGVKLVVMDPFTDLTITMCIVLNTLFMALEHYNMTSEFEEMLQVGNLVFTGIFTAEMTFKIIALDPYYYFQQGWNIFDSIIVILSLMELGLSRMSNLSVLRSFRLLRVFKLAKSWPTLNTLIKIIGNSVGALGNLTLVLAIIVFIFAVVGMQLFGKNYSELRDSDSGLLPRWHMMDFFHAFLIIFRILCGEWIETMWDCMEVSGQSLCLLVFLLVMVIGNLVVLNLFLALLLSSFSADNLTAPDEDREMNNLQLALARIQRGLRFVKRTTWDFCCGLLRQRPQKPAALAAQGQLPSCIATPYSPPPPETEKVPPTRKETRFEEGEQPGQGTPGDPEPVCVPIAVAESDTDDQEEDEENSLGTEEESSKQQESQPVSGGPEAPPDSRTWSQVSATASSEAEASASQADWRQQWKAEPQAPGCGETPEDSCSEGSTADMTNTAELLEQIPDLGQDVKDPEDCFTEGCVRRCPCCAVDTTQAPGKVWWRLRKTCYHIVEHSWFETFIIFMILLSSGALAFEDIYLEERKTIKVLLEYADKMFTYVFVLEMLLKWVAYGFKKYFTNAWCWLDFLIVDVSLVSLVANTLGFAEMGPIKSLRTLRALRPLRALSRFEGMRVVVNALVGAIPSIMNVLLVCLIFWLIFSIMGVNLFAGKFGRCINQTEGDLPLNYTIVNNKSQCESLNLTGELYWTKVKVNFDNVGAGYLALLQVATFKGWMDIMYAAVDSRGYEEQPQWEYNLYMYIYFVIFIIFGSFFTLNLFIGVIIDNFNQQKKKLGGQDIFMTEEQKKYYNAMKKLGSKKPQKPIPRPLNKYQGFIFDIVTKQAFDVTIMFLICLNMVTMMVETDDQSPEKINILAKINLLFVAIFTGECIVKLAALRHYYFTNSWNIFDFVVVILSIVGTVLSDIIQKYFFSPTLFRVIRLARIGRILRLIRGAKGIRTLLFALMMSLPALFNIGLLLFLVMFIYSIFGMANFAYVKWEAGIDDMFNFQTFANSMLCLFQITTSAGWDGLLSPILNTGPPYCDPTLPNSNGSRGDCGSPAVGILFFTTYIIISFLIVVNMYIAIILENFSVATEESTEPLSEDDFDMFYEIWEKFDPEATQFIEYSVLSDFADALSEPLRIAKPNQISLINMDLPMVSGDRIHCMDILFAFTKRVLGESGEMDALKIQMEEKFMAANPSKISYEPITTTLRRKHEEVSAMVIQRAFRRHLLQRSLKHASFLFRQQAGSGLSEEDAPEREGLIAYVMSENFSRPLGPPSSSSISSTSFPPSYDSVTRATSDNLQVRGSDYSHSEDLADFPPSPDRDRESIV
hNav1.3, sequence (Q9NY46 whole entry, looked up): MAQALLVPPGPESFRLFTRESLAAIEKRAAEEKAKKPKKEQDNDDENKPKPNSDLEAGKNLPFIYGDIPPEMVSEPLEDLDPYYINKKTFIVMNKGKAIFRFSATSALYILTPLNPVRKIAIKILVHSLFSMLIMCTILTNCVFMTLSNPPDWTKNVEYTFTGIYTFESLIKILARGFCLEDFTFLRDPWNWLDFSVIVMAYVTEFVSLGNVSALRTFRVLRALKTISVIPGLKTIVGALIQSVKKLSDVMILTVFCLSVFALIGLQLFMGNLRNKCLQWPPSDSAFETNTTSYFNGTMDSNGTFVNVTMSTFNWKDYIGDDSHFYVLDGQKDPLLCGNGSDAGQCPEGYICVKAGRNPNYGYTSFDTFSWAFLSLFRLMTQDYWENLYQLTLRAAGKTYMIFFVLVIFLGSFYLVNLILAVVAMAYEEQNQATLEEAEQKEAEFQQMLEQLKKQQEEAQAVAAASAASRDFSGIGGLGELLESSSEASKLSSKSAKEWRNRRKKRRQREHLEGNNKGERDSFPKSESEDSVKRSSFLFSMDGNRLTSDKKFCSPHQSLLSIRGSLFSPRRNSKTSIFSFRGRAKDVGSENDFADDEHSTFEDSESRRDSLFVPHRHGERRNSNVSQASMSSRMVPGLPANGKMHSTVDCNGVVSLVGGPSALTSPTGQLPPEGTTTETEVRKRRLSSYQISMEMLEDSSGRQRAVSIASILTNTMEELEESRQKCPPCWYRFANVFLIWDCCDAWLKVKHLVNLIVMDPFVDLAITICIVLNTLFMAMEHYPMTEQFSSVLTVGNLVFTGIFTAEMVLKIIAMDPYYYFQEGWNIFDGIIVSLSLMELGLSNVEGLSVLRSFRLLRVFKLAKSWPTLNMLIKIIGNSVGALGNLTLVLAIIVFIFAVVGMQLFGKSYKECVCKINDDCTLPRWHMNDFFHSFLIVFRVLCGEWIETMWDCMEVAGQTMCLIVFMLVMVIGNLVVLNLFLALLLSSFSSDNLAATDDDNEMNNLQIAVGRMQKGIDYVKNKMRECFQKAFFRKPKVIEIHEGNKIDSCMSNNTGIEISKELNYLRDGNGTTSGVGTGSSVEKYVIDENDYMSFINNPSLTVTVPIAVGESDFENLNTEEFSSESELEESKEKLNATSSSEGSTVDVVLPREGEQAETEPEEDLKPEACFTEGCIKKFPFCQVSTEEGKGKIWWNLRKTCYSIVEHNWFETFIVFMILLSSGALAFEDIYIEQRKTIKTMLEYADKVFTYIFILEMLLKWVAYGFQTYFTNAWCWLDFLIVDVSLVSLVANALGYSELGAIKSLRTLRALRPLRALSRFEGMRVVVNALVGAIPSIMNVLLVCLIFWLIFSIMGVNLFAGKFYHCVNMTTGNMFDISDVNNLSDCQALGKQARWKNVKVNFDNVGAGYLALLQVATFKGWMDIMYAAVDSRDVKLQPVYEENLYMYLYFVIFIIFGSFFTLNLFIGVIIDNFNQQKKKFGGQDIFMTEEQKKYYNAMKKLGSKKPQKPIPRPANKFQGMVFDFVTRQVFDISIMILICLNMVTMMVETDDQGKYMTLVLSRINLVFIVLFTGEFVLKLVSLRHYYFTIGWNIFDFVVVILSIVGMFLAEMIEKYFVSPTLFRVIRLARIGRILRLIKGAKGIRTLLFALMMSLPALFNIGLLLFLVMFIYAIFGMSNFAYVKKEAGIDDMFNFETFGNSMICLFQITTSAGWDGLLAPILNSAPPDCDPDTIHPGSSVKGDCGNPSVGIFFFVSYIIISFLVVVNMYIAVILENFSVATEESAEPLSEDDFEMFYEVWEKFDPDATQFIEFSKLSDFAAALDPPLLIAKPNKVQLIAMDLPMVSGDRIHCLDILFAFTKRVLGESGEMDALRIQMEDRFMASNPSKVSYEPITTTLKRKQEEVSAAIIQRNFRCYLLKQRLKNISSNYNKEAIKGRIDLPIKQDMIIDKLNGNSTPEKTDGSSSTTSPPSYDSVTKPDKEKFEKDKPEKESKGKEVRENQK

With `CC[C@H](C)[C@@H]1NC(=O)[C@@H]2CSSC[C@@H]3NC(=O)[C@H](C(C)C)NC(=O)[C@H](CC(C)C)NC(=O)[C@H](CC(N)=O)NC(=O)[C@@H]4CCCN4C(=O)[C@H](CCCNC(=N)N)NC(=O)[C@H](CSSC[C@H](NC(=O)[C@@H](N)CC(=O)O)C(=O)N[C@@H](CC(C)C)C(=O)NCC(=O)N[C@@H](C)C(=O)N[C@@H](Cc4ccccc4)C(=O)N[C@@H](CCCNC(=N)N)C(=O)N[C@@H](CCCCN)C(=O)N2)NC(=O)[C@H](CSSC[C@@H](C(=O)N[C@@H](CCCCN)C(=O)N[C@@H](Cc2ccc(O)cc2)C(=O)N[C@H](C(=O)N[C@@H](Cc2ccccc2)C(N)=O)C(C)C)NC(=O)[C@H](Cc2c[nH]c4ccccc24)NC(=O)[C@H](CCC(=O)O)NC(=O)[C@H](Cc2c[nH]cn2)NC(=O)[C@H]([C@@H](C)O)NC(=O)[C@H](CCCNC(=N)N)NC(=O)[C@H](CO)NC3=O)NC(=O)[C@H](CCCCN)NC(=O)[C@H](CC(=O)O)NC(=O)[C@H](CC(N)=O)NC(=O)[C@H](CC(=O)O)NC(=O)[C@@H]2CCCN2C1=O` [compound 729] (H-DCLGAFRKCIPDNDKCCRPNLVCSRTHEWCKYVF-NH2; disulfide 2-17, 9-23, 16-30), the IC50 on hNav1.7 was determined as 1100 nM; at hNav1.3, 1800 nM; at hNav1.5, 48000 nM.
On to `CC[C@H](C)[C@@H]1NC(=O)[C@@H]2CSSC[C@@H]3NC(=O)[C@H](C(C)C)NC(=O)[C@H](CC(C)C)NC(=O)[C@H](CC(N)=O)NC(=O)[C@@H]4CCCN4C(=O)[C@H](CCCNC(=N)N)NC(=O)[C@H](CSSC[C@H](NC(=O)[C@@H](N)CC(=O)O)C(=O)N[C@@H](CC(C)C)C(=O)NCC(=O)N[C@@H](C)C(=O)N[C@@H](CC(C)C)C(=O)N[C@@H](CCCNC(=N)N)C(=O)N[C@@H](CCCCN)C(=O)N2)NC(=O)[C@H](CSSC[C@@H](C(=O)N[C@@H](CCCCN)C(=O)N[C@@H](Cc2ccc(O)cc2)C(=O)N[C@H](C(=O)N[C@@H](Cc2ccccc2)C(N)=O)C(C)C)NC(=O)[C@H](Cc2c[nH]c4ccccc24)NC(=O)[C@H](CCCCN)NC(=O)[C@H](Cc2c[nH]cn2)NC(=O)[C@H]([C@@H](C)O)NC(=O)[C@H](C)NC(=O)[C@H](CO)NC3=O)NC(=O)[C@H](CCCCN)NC(=O)[C@H](CC(=O)O)NC(=O)[C@H](CC(N)=O)NC(=O)[C@H](CC(=O)O)NC(=O)[C@@H]2CCCN2C1=O` [compound 731], for which the IC50 at hNav1.7 turned out to be 600 nM; on hNav1.3 it was 2800 nM; at hNav1.5, 38000 nM.
On the same counts, the results for `CC[C@H](C)[C@@H]1NC(=O)[C@@H]2CSSC[C@@H]3NC(=O)[C@H](C(C)C)NC(=O)[C@H](CC(C)C)NC(=O)[C@H](CC(N)=O)NC(=O)[C@@H]4CCCN4C(=O)[C@H](CCCNC(=N)N)NC(=O)[C@H](CSSC[C@H](NC(=O)[C@@H](N)CC(=O)O)C(=O)N[C@@H](CC(C)C)C(=O)NCC(=O)N[C@@H](C)C(=O)N[C@@H](Cc4ccccc4)C(=O)N[C@@H](CCCNC(=N)N)C(=O)N[C@@H](CCCCN)C(=O)N2)NC(=O)[C@H](CSSC[C@@H](C(=O)N[C@@H](CCCCN)C(=O)N[C@@H](Cc2ccc(O)cc2)C(=O)N[C@H](C(=O)N[C@@H](Cc2ccccc2)C(N)=O)C(C)C)NC(=O)[C@H](Cc2c[nH]c4ccccc24)NC(=O)[C@H](CCCCN)NC(=O)[C@H](Cc2c[nH]cn2)NC(=O)[C@H]([C@@H](C)O)NC(=O)[C@H](C)NC(=O)[C@H](CO)NC3=O)NC(=O)[C@H](CCCCN)NC(=O)[C@H](CC(=O)O)NC(=O)[C@H](CC(N)=O)NC(=O)[C@H](CC(=O)O)NC(=O)[C@@H]2CCCN2C1=O` [compound 732] (H-DCLGAFRKCIPDNDKCCRPNLVCSATHKWCKYVF-NH2; disulfide 2-17, 9-23, 16-30) are 290 nM, 600 nM and above 50000 nM.
Taken in the same sequence, the figures for `CC[C@H](C)[C@@H]1NC(=O)[C@@H]2CSSC[C@@H]3NC(=O)[C@H](C(C)C)NC(=O)[C@H](CC(C)C)NC(=O)[C@H](CC(N)=O)NC(=O)[C@@H]4CCCN4C(=O)[C@H](CCCNC(=N)N)NC(=O)[C@H](CSSC[C@H](NC(=O)[C@@H](N)CC(=O)O)C(=O)N[C@@H](CC(C)C)C(=O)NCC(=O)N[C@@H](C)C(=O)N[C@@H](CC(C)C)C(=O)N[C@@H](CCCNC(=N)N)C(=O)N[C@@H](CCCCN)C(=O)N2)NC(=O)[C@H](CSSC[C@@H](C(=O)N[C@@H](CCCCN)C(=O)N[C@@H](Cc2ccc(O)cc2)C(=O)N[C@H](C(=O)N[C@@H](Cc2ccccc2)C(N)=O)C(C)C)NC(=O)[C@H](Cc2c[nH]c4ccccc24)NC(=O)[C@H](CCCCN)NC(=O)[C@H](Cc2c[nH]cn2)NC(=O)[C@H]([C@@H](C)O)NC(=O)[C@H](CCC(=O)O)NC(=O)[C@H](CO)NC3=O)NC(=O)[C@H](CCCCN)NC(=O)[C@H](CC(=O)O)NC(=O)[C@H](CC(N)=O)NC(=O)[C@H](CC(=O)O)NC(=O)[C@@H]2CCCN2C1=O` [compound 734] were 1800 nM, 9300 nM and 41000 nM.
On the same counts, the results for `CC[C@H](C)[C@@H]1NC(=O)[C@@H]2CSSC[C@@H]3NC(=O)[C@H](C(C)C)NC(=O)[C@H](CC(C)C)NC(=O)[C@H](CC(N)=O)NC(=O)[C@@H]4CCCN4C(=O)[C@H](CCCNC(=N)N)NC(=O)[C@H](CSSC[C@H](NC(=O)[C@@H](N)CC(=O)O)C(=O)N[C@@H](CC(C)C)C(=O)NCC(=O)N[C@@H](C)C(=O)N[C@@H](Cc4ccccc4)C(=O)N[C@@H](CCCNC(=N)N)C(=O)N[C@@H](CCCCN)C(=O)N2)NC(=O)[C@H](CSSC[C@@H](C(=O)N[C@@H](CCCCN)C(=O)N[C@@H](Cc2ccc(O)cc2)C(=O)N[C@H](C(=O)N[C@@H](Cc2ccccc2)C(N)=O)C(C)C)NC(=O)[C@H](Cc2c[nH]c4ccccc24)NC(=O)[C@H](CCCCN)NC(=O)[C@H](Cc2c[nH]cn2)NC(=O)[C@H]([C@@H](C)O)NC(=O)[C@H](CCC(=O)O)NC(=O)[C@H](CO)NC3=O)NC(=O)[C@H](CCCCN)NC(=O)[C@H](CC(=O)O)NC(=O)[C@H](CC(N)=O)NC(=O)[C@H](CC(=O)O)NC(=O)[C@@H]2CCCN2C1=O` [compound 735] (H-DCLGAFRKCIPDNDKCCRPNLVCSETHKWCKYVF-NH2; disulfide 2-17, 9-23, 16-30) are 1500 nM, 3600 nM and 41000 nM.
As to `C#CC[C@@H]1NC(=O)[C@H](CC(=O)O)NC(=O)[C@H](CC(N)=O)NC(=O)[C@H](CC(=O)O)NC(=O)[C@@H]2CCCN2C(=O)[C@H]([C@@H](C)CC)NC(=O)[C@@H]2CSSC[C@@H]3NC(=O)[C@H](C(C)C)NC(=O)[C@H](CC(C)C)NC(=O)[C@H](CC(N)=O)NC(=O)[C@@H]4CCCN4C(=O)[C@H](CCCNC(=N)N)NC(=O)[C@H](CSSC[C@H](NC(=O)[C@@H](N)CC(=O)O)C(=O)N[C@@H](CC(C)C)C(=O)NCC(=O)N[C@@H](Cc4ccccc4)C(=O)N[C@@H](Cc4ccccc4)C(=O)N[C@@H](CCCNC(=N)N)C(=O)N[C@@H](CCCCN)C(=O)N2)NC(=O)[C@H](CSSC[C@@H](C(=O)N[C@@H](CCCCN)C(=O)N[C@@H](Cc2ccc(O)cc2)C(=O)N[C@H](C(=O)N[C@@H](Cc2ccccc2)C(N)=O)C(C)C)NC(=O)[C@H](Cc2c[nH]c4ccccc24)NC(=O)[C@H](CCCCN)NC(=O)[C@H](Cc2c[nH]cn2)NC(=O)[C@H]([C@@H](C)O)NC(=O)[C@H](CCCNC(=N)N)NC(=O)[C@H](CO)NC3=O)NC1=O` [compound 736] (H-DCLGFFRKCIPDND[Pra]CCRPNLVCSRTHKWCKYVF-NH2; disulfide 2-17, 9-23, 16-30), the IC50 at hNav1.7 was above 5000 nM; at hNav1.3 it was above 5000 nM; at hNav1.5 it was 32600 nM.
Consider `CC[C@H](C)[C@@H]1NC(=O)[C@@H]2CSSC[C@@H]3NC(=O)[C@H](C(C)C)NC(=O)[C@H](CC(C)C)NC(=O)[C@H](CC(N)=O)NC(=O)[C@@H]4CCCN4C(=O)[C@H](CCCNC(=N)N)NC(=O)[C@H](CSSC[C@H](NC(=O)[C@@H](N)CC(=O)O)C(=O)N[C@@H](CC(C)C)C(=O)NCC(=O)N[C@@H](C)C(=O)N[C@@H](CCSC)C(=O)N[C@@H](CCCNC(=N)N)C(=O)N[C@@H](CCCCN)C(=O)N2)NC(=O)[C@H](CSSC[C@@H](C(=O)N[C@@H](CCCCN)C(=O)N[C@@H](Cc2ccc(O)cc2)C(=O)N[C@H](C(=O)N[C@@H](Cc2ccccc2)C(N)=O)C(C)C)NC(=O)[C@H](Cc2c[nH]c4ccccc24)NC(=O)[C@H](Cc2c[nH]cn2)NC(=O)[C@H](Cc2c[nH]cn2)NC(=O)[C@H]([C@@H](C)O)NC(=O)[C@H](CCCNC(=N)N)NC(=O)[C@H](CO)NC3=O)NC(=O)[C@H](CCCCN)NC(=O)[C@H](CC(=O)O)NC(=O)[C@H](CC(N)=O)NC(=O)[C@H](CC(=O)O)NC(=O)[C@@H]2CCCN2C1=O` [compound 737] (H-DCLGAMRKCIPDNDKCCRPNLVCSRTHHWCKYVF-NH2; disulfide 2-17, 9-23, 16-30), for which the values for the IC50 on hNav1.7, at hNav1.3 and on hNav1.5 were 400 nM, 1600 nM and 19200 nM, respectively.
On the same counts, the results for `CC[C@H](C)[C@@H]1NC(=O)[C@@H]2CSSC[C@@H]3NC(=O)[C@H](C(C)C)NC(=O)[C@H](CC(C)C)NC(=O)[C@H](CC(N)=O)NC(=O)[C@@H]4CCCN4C(=O)[C@H](CCCNC(=N)N)NC(=O)[C@H](CSSC[C@H](NC(=O)[C@@H](N)CC(=O)O)C(=O)N[C@@H](CC(C)C)C(=O)NCC(=O)N[C@@H](C)C(=O)N[C@@H](CCSC)C(=O)N[C@@H](CCCNC(=N)N)C(=O)N[C@@H](CCCCN)C(=O)N2)NC(=O)[C@H](CSSC[C@@H](C(=O)N[C@@H](CCCCN)C(=O)N[C@@H](Cc2ccc(O)cc2)C(=O)N[C@H](C(=O)N[C@@H](Cc2ccccc2)C(N)=O)C(C)C)NC(=O)[C@H](Cc2c[nH]c4ccccc24)NC(=O)[C@H](CO)NC(=O)[C@H](Cc2c[nH]cn2)NC(=O)[C@H]([C@@H](C)O)NC(=O)[C@H](CCCNC(=N)N)NC(=O)[C@H](CO)NC3=O)NC(=O)[C@H](CCCCN)NC(=O)[C@H](CC(=O)O)NC(=O)[C@H](CC(N)=O)NC(=O)[C@H](CC(=O)O)NC(=O)[C@@H]2CCCN2C1=O` [compound 738] (H-DCLGAMRKCIPDNDKCCRPNLVCSRTHSWCKYVF-NH2; disulfide 2-17, 9-23, 16-30) are 650 nM, 1800 nM and 21900 nM.
